Key:
[1] = tested on: antibodies in sera from SARS patients (sera 1a, 1b, 2, 6, 37, 62, London, SARS-yellow, SARS-green); assay type: binding, human; design: Binding of serum 6 to linear peptides of protein X1 of SARS-CoV Urbani / Binding of serum 37 to linear peptides of protein X1 of SARS-CoV Urbani / Binding of serum 6 to looped/cyclic peptide (PEPSCAN-ELISA) / Binding of serum 37 to looped/cyclic peptide (PEPSCAN-ELISA) / Binding of serum 37 to looped/cyclic peptides of protein X1 of SARS-CoV Urbani / Binding of serum 6 to linear peptides of protein X2 / Binding of serum 37 to linear peptides of protein X2 / Binding of serum 37 to looped/cyclic peptides of protein X2 of SARS-CoV Urbani / Binding of serum 6 to linear peptides of protein M of SARS-CoV Urbani / Binding of serum 37 to linear peptides of protein M of SARS-CoV Urbani / Binding of serum 6 to looped/cyclic peptides of protein M of SARS-CoV Urbani / Binding of serum 37 to looped/cyclic peptides of protein M of SARS-CoV Urbani / Binding of serum 6 to linear peptides of protein X3 of SARS-CoV Urbani / Binding of serum 37 to linear peptides of protein X3 of SARS-CoV Urbani / Binding of serum 37 to looped/cyclic peptides of protein X3 of SARS-CoV Urbani / Binding of serum 6 to linear peptides of protein X4 of SARS-CoV Urbani / Binding of serum 37 to linear peptides of protein X4 of SARS-CoV Urbani / Binding of serum 37 to looped/cyclic peptides of protein X4 of SARS-CoV Urbani / Binding of serum 6 to linear peptides of protein X5 of SARS-CoV Urbani / Binding of serum 37 to linear peptides of protein X5 of SARS-CoV Urbani / Binding of serum 37 to looped/cyclic peptides of protein X5 of SARS-CoV Urbani / Binding of serum 6 to linear peptides of protein N of SARS-CoV Urbani / Binding of serum 37 to linear peptides of protein N of SARS-CoV Urbani / Binding of serum 6 to linear peptide (PEPSCAN-ELISA) / Binding of serum 1a to looped/cyclic peptides of protein N of SARS-CoV Urbani / Binding of serum 1b to looped/cyclic peptides of protein N of SARS-CoV Urbani / Binding of serum 2 to looped/cyclic peptides of protein N of SARS-CoV Urbani / Binding of serum 6 to looped/cyclic peptides of protein N of SARS-CoV Urbani / Binding of serum 37 to looped/cyclic peptides of protein N of SARS-CoV Urbani / Binding of serum 62 to looped/cyclic peptides of protein N of SARS-CoV Urbani / Binding of serum London to looped/cyclic peptides of protein N of SARS-CoV Urbani / Binding of serum SARS-green to looped/cyclic peptides of protein N of SARS-CoV Urbani: unit not given here
[2] = tested on: control sera (pooled serum of ten healthy LUMC hospital workers; commercial negative donor pooled serum from the Dutch bloodbank); assay type: binding, human; design: Binding of Control serum LUMC to linear peptides / Binding of Control serum Blood-bank to linear peptides / Binding of Control serum LUMC to looped peptides / Binding of Control Serum Blood-Bank to Looped peptides / Binding of Control serum LUMC to linear peptides of the protein M of SARS-CoV Urbani / Binding of Control serum Blood-bank to linear peptides of the protein M of SARS-CoV Urbani / Binding of Control serum LUMC to looped peptides of the protein M of SARS-CoV Urbani / Binding of Control Serum Blood-Bank to Looped peptides of the protein M of SARS-CoV Urbani: unit not given here
[3] = tested on: rabbit serum obtained by immunizing a rabbit with the SARS-CoV strain Frankfurt 1; assay type: binding; design: Binding of a rabbit serum to linear peptides / Binding of a rabbit serum to looped peptides / Rabbit serum linear peptides / Rabbit serum looped peptides / Binding of a rabbit serum to linear peptides of protein N of SARS-CoV Urbani (Rabbit serum linear peptides) / Binding of a rabbit serum to looped/cyclic peptides of protein N of SARS-CoV Urbani (Rabbit serum looped peptides): unit not given here

LVIGVAFLAVFQSAT was tested, and the “Binding of serum 1a to linear peptides of protein X1 of SARS-CoV Urbani” value [1] was 0.7, the “Binding of serum 1a to looped/cyclic peptide (PEPSCAN-ELISA)” value [1] was 0.8 and the “Binding of serum 1b to linear peptides of protein X1 of SARS-CoV Urbani” value [1] was 0.6. For the same sequence, the “Binding of serum 1b to looped/cyclic peptide (PEPSCAN-ELISA)” value [1] was 0.6, the “Binding of serum 2 to linear peptides of protein X1 of SARS-CoV Urbani” value [1] was 0.6 and the “Binding of serum 2 to looped/cyclic peptide (PEPSCAN-ELISA)” value [1] was 0.7. The “Binding of serum 6 to linear peptides of protein X1 of SARS-CoV Urbani” value [1] was 0.4, the “Binding of serum 6 to looped/cyclic peptide (PEPSCAN-ELISA)” value [1] was 0.7 and the “Binding of serum 37 to linear peptides of protein X1 of SARS-CoV Urbani” value [1] was 0.6. The “Binding of serum 37 to looped/cyclic peptide (PEPSCAN-ELISA)” value [1] was 0.8, the “Binding of serum 62 to linear peptides of protein X1 of SARS-CoV Urbani” value [1] was 0.6 and the “Binding of serum 62 to looped/cyclic peptide (PEPSCAN-ELISA)” value [1] was 1.0. The “Binding of serum London to linear peptides of protein X1 of SARS-CoV Urbani” value [1] was 0.3, the “Binding of serum London to looped/cyclic peptide (PEPSCAN-ELISA)” value [1] was 0.3 and the “Binding of serum SARS-green to linear peptides of protein X1 of SARS-CoV Urbani” value [1] was 0.3. The “Binding of serum SARS-green to looped/cyclic peptide (PEPSCAN-ELISA)” value [1] was 0.5, the “Binding of serum SARS-yellow to linear peptides of protein X1 of SARS-CoV Urbani” value [1] was 0.4 and the “Binding of serum SARS-yellow to looped/cyclic peptide (PEPSCAN-ELISA)” value [1] was 0.7. For the same sequence, the “Binding of Control Serum Blood-Bank to Looped peptides” value [2] was 1.1, the “Binding of Control serum Blood-bank to linear peptides” value [2] was 0.6 and the “Binding of Control serum LUMC to linear peptides” value [2] was 0.6. The “Binding of Control serum LUMC to looped peptides” value [2] was 1.0, the “Binding of a rabbit serum to linear peptides” value [3] was 0.3 and the “Binding of a rabbit serum to looped peptides” value [3] was 1.2.
In the case of LWLLWPVTLACFVLA, the “Binding of serum 1a to linear peptides of protein M of SARS-CoV Urbani” value [1] was 0.7, the “Binding of serum 1a to looped/cyclic peptides of protein M of SARS-CoV Urbani” value [1] was 0.7 and the “Binding of serum 1b to linear peptides of protein M of SARS-CoV Urbani” value [1] was 0.6. The “Binding of serum 1b to looped/cyclic peptides of protein M of SARS-CoV Urbani” value [1] was 0.4, the “Binding of serum 2 to linear peptides of protein M of SARS-CoV Urbani” value [1] was 0.4 and the “Binding of serum 2 to looped/cyclic peptides of protein M of SARS-CoV Urbani” value [1] was 0.6. The “Binding of serum 6 to linear peptides of protein M of SARS-CoV Urbani” value [1] was 0.5, the “Binding of serum 6 to looped/cyclic peptides of protein M of SARS-CoV Urbani” value [1] was 0.5 and the “Binding of serum 37 to linear peptides of protein M of SARS-CoV Urbani” value [1] was 0.4. The “Binding of serum 37 to looped/cyclic peptides of protein M of SARS-CoV Urbani” value [1] was 0.7, the “Binding of serum 62 to linear peptides of protein M of SARS-CoV Urbani” value [1] was 0.4 and the “Binding of serum 62 to looped/cyclic peptides of protein M of SARS-CoV Urbani” value [1] was 0.6. The “Binding of serum London to linear peptides of protein M of SARS-CoV Urbani” value [1] was 0.4, the “Binding of serum London to looped/cyclic peptides of protein M of SARS-CoV Urbani” value [1] was 0.2 and the “Binding of serum SARS-green to linear peptides of protein M of SARS-CoV Urbani” value [1] was 0.4. The “Binding of serum SARS-green to looped/cyclic peptides of protein M of SARS-CoV Urbani” value [1] was 0.2, the “Binding of serum SARS-yellow to linear peptides of protein M of SARS-CoV Urbani” value [1] was 0.2 and the “Binding of serum SARS-yellow to looped/cyclic peptides of protein M of SARS-CoV Urbani” value [1] was 0.6. For the same sequence, the “Binding of Control Serum Blood-Bank to Looped peptides of the protein M of SARS-CoV Urbani” value [2] was 0.5, the “Binding of Control serum Blood-bank to linear peptides of the protein M of SARS-CoV Urbani” value [2] was 0.5 and the “Binding of Control serum LUMC to linear peptides of the protein M of SARS-CoV Urbani” value [2] was 0.5. The “Binding of Control serum LUMC to looped peptides of the protein M of SARS-CoV Urbani” value [2] was 0.6, the “Rabbit serum linear peptides” value [3] was 0.1 and the “Rabbit serum looped peptides” value [3] was 0.4.
For LWPVTLACFVLAAVY, the “Binding of serum 1a to linear peptides of protein M of SARS-CoV Urbani” value [1] was 0.7, the “Binding of serum 1a to looped/cyclic peptides of protein M of SARS-CoV Urbani” value [1] was 0.7 and the “Binding of serum 1b to linear peptides of protein M of SARS-CoV Urbani” value [1] was 0.6. The “Binding of serum 1b to looped/cyclic peptides of protein M of SARS-CoV Urbani” value [1] was 0.5, the “Binding of serum 2 to linear peptides of protein M of SARS-CoV Urbani” value [1] was 0.6 and the “Binding of serum 2 to looped/cyclic peptides of protein M of SARS-CoV Urbani” value [1] was 0.7. The “Binding of serum 6 to linear peptides of protein M of SARS-CoV Urbani” value [1] was 0.3, the “Binding of serum 6 to looped/cyclic peptides of protein M of SARS-CoV Urbani” value [1] was 0.6 and the “Binding of serum 37 to linear peptides of protein M of SARS-CoV Urbani” value [1] was 0.7. For the same sequence, the “Binding of serum 37 to looped/cyclic peptides of protein M of SARS-CoV Urbani” value [1] was 0.7, the “Binding of serum 62 to linear peptides of protein M of SARS-CoV Urbani” value [1] was 0.8 and the “Binding of serum 62 to looped/cyclic peptides of protein M of SARS-CoV Urbani” value [1] was 0.6. The “Binding of serum London to linear peptides of protein M of SARS-CoV Urbani” value [1] was 0.3, the “Binding of serum London to looped/cyclic peptides of protein M of SARS-CoV Urbani” value [1] was 0.2 and the “Binding of serum SARS-green to linear peptides of protein M of SARS-CoV Urbani” value [1] was 0.2. For the same sequence, the “Binding of serum SARS-green to looped/cyclic peptides of protein M of SARS-CoV Urbani” value [1] was 0.2, the “Binding of serum SARS-yellow to linear peptides of protein M of SARS-CoV Urbani” value [1] was 0.0 and the “Binding of serum SARS-yellow to looped/cyclic peptides of protein M of SARS-CoV Urbani” value [1] was 0.5. The “Binding of Control Serum Blood-Bank to Looped peptides of the protein M of SARS-CoV Urbani” value [2] was 0.6, the “Binding of Control serum Blood-bank to linear peptides of the protein M of SARS-CoV Urbani” value [2] was 0.6 and the “Binding of Control serum LUMC to linear peptides of the protein M of SARS-CoV Urbani” value [2] was 0.4. For the same sequence, the “Binding of Control serum LUMC to looped peptides of the protein M of SARS-CoV Urbani” value [2] was 0.7, the “Rabbit serum linear peptides” value [3] was 0.4 and the “Rabbit serum looped peptides” value [3] was 0.4.
With LYSPLFLIVAALVFL the “Binding of serum 1a to linear peptides of protein X4 of SARS-CoV Urbani” value [1] was 0.6, the “Binding of serum 1a to looped/cyclic peptides of protein X4 of SARS-CoV Urbani” value [1] was 0.5 and the “Binding of serum 1b to linear peptides of protein X4 of SARS-CoV Urbani” value [1] was 0.4. The “Binding of serum 1b to looped/cyclic peptides of protein X4 of SARS-CoV Urbani” value [1] was 0.3, the “Binding of serum 2 to linear peptides of protein X4 of SARS-CoV Urbani” value [1] was 0.4 and the “Binding of serum 2 to looped/cyclic peptides of protein X4 of SARS-CoV Urbani” value [1] was 0.4. The “Binding of serum 6 to linear peptides of protein X4 of SARS-CoV Urbani” value [1] was 0.5, the “Binding of serum 6 to looped/cyclic peptides of protein X4 of SARS-CoV Urbani” value [1] was 0.4 and the “Binding of serum 37 to linear peptides of protein X4 of SARS-CoV Urbani” value [1] was 0.6. The “Binding of serum 37 to looped/cyclic peptides of protein X4 of SARS-CoV Urbani” value [1] was 0.5, the “Binding of serum 62 to linear peptides of protein X4 of SARS-CoV Urbani” value [1] was 0.6 and the “Binding of serum 62 to looped/cyclic peptides of protein X4 of SARS-CoV Urbani” value [1] was 0.5. The “Binding of serum London to linear peptides of protein X4 of SARS-CoV Urbani” value [1] was 0.6, the “Binding of serum London to looped/cyclic peptides of protein X4 of SARS-CoV Urbani” value [1] was 0.2 and the “Binding of serum SARS-green to linear peptides of protein X4 of SARS-CoV Urbani” value [1] was 0.5. The “Binding of serum SARS-green to looped/cyclic peptides of protein X4 of SARS-CoV Urbani” value [1] was 0.4, the “Binding of serum SARS-yellow to linear peptides of protein X4 of SARS-CoV Urbani” value [1] was 0.2 and the “Binding of serum SARS-yellow to looped/cyclic peptides of protein X4 of SARS-CoV Urbani” value [1] was 0.4. For the same sequence, the “Binding of Control Serum Blood-Bank to Looped peptides” value [2] was 0.6, the “Binding of Control serum Blood-bank to linear peptides” value [2] was 0.5 and the “Binding of Control serum LUMC to linear peptides” value [2] was 0.4. For the same sequence, the “Binding of Control serum LUMC to looped peptides” value [2] was 0.6, the “Rabbit serum linear peptides” value [3] was 0.4 and the “Rabbit serum looped peptides” value [3] was 0.3.
